This assay relates to GUMC-403. The assay can be described thus: viability at highest tested concentration (max response) relative to DMSO (% of DMSO control); higher = less cytotoxic. Particulars: library / dose series: MIPE library, 11-point 1:3 dilution, 48 h. The essentials:
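The value is viability at the highest tested concentration, expressed relative to vehicle control. Patient-derived GUMC-403 papilloma cells, grown by conditional reprogramming, were seeded at 700/well in 5 μL F + Y medium in 1536-well plates. After an overnight incubation at 37 °C, they received 23 nL of compound by pin tool for 48 h. Readout was CellTiter-Glo luminescence on a ViewLux, normalised to vehicle wells (100%) and empty wells (0%).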

Each structure is given as a SMILES string.

Compound `O=C(O)c1cc(O)c2c(c1)C(=O)c1cccc(O)c1C2=O` returned a viability (top concentration 92.2 µM) of 110. `Cc1ccc2c(c1)c1c(n2CCc2ccc(C)nc2)CCN(C)C1`: for the setting “top concentration 46.1 µM”, the viability is 108. `Cc1nnc(C(=O)NC(C)(C)c2nc(C(=O)NCc3ccc(F)cc3)c(O)c(=O)n2C)o1`: for the setting “top concentration 46.1 µM”, the viability stood at 124.

Under “top concentration 23 µM”, `COc1cc(O)c2c(c1)C(=O)c1cc(C)cc(O)c1C2=O` had a viability of 114.

For `CN1C(=O)\C(=C/C(=C1/NC2=C(F)C=C(I)C=C2)C(=O)NOCCO)C`, the viability (top concentration 46.1 µM) was 80.2. The same measure, in the same setting: under `CC1CCC(C(=O)N(c2cc(C#CC(C)(C)C)sc2C(=O)O)C2CCC(O)CC2)CC1` (configuration not stated) stands 106; under `C/C1=C2/[N]3[Co+]456([OH])<-[N]7=C1[C@@H](CCC(N)=O)C(C)(C)/C7=C/C1=[N]->4C(=C(/C)C4=[N]->5[C@@](C)([C@H]3[C@H](CC(N)=O)[C@@]2(C)CCC(=O)NC[C@@H](C)OP(=O)([O-])O[C@H]2[C@@H](O)[C@@H](n3c[n]->6c5cc(C)c(C)cc53)O[C@@H]2CO)[C@@](C)(CC(N)=O)[C@@H]4CCC(N)=O)/[C@@](C)(CC(N)=O)[C@@H]1CCC(N)=O`, 91.2. `COC1=CC=CC2=C1C(=NC(=N2)C3=CC=CS3)NN4C(=O)\C=C(C)/C4=O`: the viability (top concentration 46.1 µM) was found to be 80. Compound `N#C/C(C(=O)c1ccc(Cl)cc1Cl)=C1/NC(=O)c2ccc(Cl)cc2N1` displayed a viability (top concentration 46.1 µM) of 100. For the setting “top concentration 46.1 µM”, `COc1c(O)cc2c(c1O)[C@@H]1O[C@H](CO)[C@@H](O)[C@H](O)[C@H]1OC2=O` displayed a viability of 110.

Under “top concentration 46.1 µM”, `CC(C)c1onc(-c2c(Cl)cccc2Cl)c1COc1ccc(/C=C/c2cccc(C(=O)O)c2)c(Cl)c1` displayed a viability of 123. In turn, `COc1cc(N[S+](=O)([O-])c2ccc(N)cc2)nc(OC)n1` showed a viability (top concentration 46.1 µM) of 142. As to `Clc1ccc(C(Cn2ccnc2)OCc2c(Cl)cccc2Cl)c(Cl)c1` (configuration not stated), the viability (top concentration 46.1 µM) was found to be 113. The compound `Cc1ccnc(N[S+](=O)([O-])c2ccc(NC(=O)Nc3ccc([S+](=O)([O-])Nc4nccc(C)n4)cc3)cc2)n1` came in with a viability (top concentration 46.1 µM) of 121.

Compound `CN(C)c1ccc(Nc2nc(N)n(C(=O)c3c(F)cccc3F)n2)cc1` gave a viability (top concentration 46.1 µM) of 103. In the case of `COCCOc1ccc2c(c1)ncn2-c1ccc2cccc(N3CCC(N)CC3)c2n1`, the viability (top concentration 46.1 µM) was 87. The compound `CO/N=C(/C(=O)N[C@@H]1C(=O)N2C(C(=O)O)=C(CSC(=O)c3ccco3)CS[C@H]12)c1csc(N)n1` displayed a viability (top concentration 46.1 µM) of 172. Turning to `Oc1ccc(-c2nc(-c3ccncc3)c(-c3ccc(F)cc3)[nH]2)cc1`, the viability (top concentration 46.1 µM) stood at 102. `COC(=O)[C@@H]1[C@H]2C[C@H]3c4[nH]c5ccccc5c4CCN3C[C@@H]2CC[C@@H]1O` yielded a viability (top concentration 46.1 µM) of 128. Still for that read-out and setting: to `CC1(C)SCCN([S+](=O)([O-])c2ccc(OCC#CCO)cc2)[C@H]1C(=O)NO` belongs 103; to `O=C(Nc1cccc(C(F)(F)F)c1)Nc1cc([S+](=O)([O-])NC2CC2)ccc1-c1ccsc1`, 124. In turn, `CCOC(=O)c1c(CSc2ccccc2)n(C)c2cc(Br)c(O)c(CN(C)C)c12` yielded a viability (top concentration 46.1 µM) of 105.

Where the note is “top concentration 46.1 µM”, `COC1=C(CC=C(C)C)C2=C(\C=C/C(=O)O2)C=C1` registered a viability of 92.

The compound `Cc1c(N)nc([C@H](CC(N)=O)NC[C@@H](N)C(N)=O)nc1C(=O)N[C@H](C(=O)N[C@@H](C)[C@H](O)[C@@H](C)C(=O)N[C@@H](C(=O)NCCc1nc(-c2nc(C(=O)NCCC[S+](C)C)cs2)cs1)[C@@H](C)O)C(O[C@H]1O[C@H](CO)[C@H](O)[C@@H](O)[C@H]1O[C@H]1O[C@H](CO)[C@@H](O)[C@H](OC(N)=O)[C@@H]1O)c1c[nH]cn1` (some centres not stated) gave a viability (top concentration 46.1 µM) of 84.5.

For `CC(C)(C)c1cc(NC(=O)Nc2ccc(-c3cn4c(n3)sc3cc(OCCN5CCOCC5)ccc34)cc2)no1`, the viability (top concentration 46.1 µM) was 121.

Regarding `CC12CC3CC(C)(C1)CC(N)(C3)C2`, the viability (top concentration 46.1 µM) amounted to 117. Regarding `CN(C)CCc1c[nH]c2ccc(Cn3cncn3)cc12`, the viability (top concentration 46.1 µM) was determined as 100.

Values taken from the supplement of paper PMC6723410.
